{"source": "ChEMBL document CHEMBL4261654", "about": "“Synthesis and in vitro antitumor activity of novel alkenyl derivatives of pyridoxine, bioisosteric analogs of feruloyl methane” (Bioorg Med Chem, 2018)", "key": {"[1]": {"system": "PC-3", "assay": "Cell cycle arrest in human PC3 cells assessed as accumulation at G2/M phase at 70 uM after 72 hrs by RNase/propidium iodide staining-based flow cytometric analysis (reference value: 20 +/- 3%)", "type": "functional"}, "[2]": {"system": "PC-3", "assay": "Induction of mitochondrial membrane potential loss in human PC3 cells assessed as fluorescence intensity at 50 uM after 24 hrs by TMRE dye-based flow cytometric analysis (reference value: 10101 +/- 853)", "type": "functional"}, "[3]": {"system": "PC-3", "assay": "Induction of apoptosis in human PC3 cells assessed as early apoptotic cells at 50 uM after 24 hrs by Annexin V-PE/7-AAD staining-based flow cytometric analysis (reference value: 2%)", "type": "functional"}, "[4]": {"system": "PC-3", "assay": "Induction of apoptosis in human PC3 cells assessed as intracellular ROS levels by measuring fluoresence intensity at 150 uM after 24 hrs by DCFH-DA staining-based flow cytometric analysis (reference value: 3176 +/- 398)", "type": "functional"}, "[5]": {"system": "HCT-116", "assay": "Antiproliferative activity against human HCT116 cells after 72 hrs by MTT assay", "type": "functional, cell-based", "details": "HCT-116, 72 h"}, "[6]": {"system": "A498", "assay": "Antiproliferative activity against human A498 cells after 72 hrs by MTT assay", "type": "functional, cell-based", "details": "A498, 72 h"}, "[7]": {"system": "MCF7", "assay": "Antiproliferative activity against human MCF7 cells after 72 hrs by MTT assay", "type": "functional, cell-based", "details": "MCF7, 72 h"}, "[8]": {"system": "M14", "assay": "Antiproliferative activity against human M14 cells after 72 hrs by MTT assay", "type": "functional, cell-based", "details": "M14, 72 h"}, "[9]": {"system": "PC-3", "assay": "Antiproliferative activity in human PC3 cells up to 50 uM measured during 120 hrs each 15 mins by RTCA DP based cellular impedance analysis", "type": "functional"}, "[10]": {"assay": "Antioxidant activity assessed as ferric ion reducing activity at 20 to 320 umol after 20 mins by FRAP assay", "type": "functional"}, "[11]": {"system": "PC-3", "assay": "Antimigratory activity in human PC3 cells up to 50 uM measured during 120 hrs each 15 mins by RTCA DP based cellular impedance analysis", "type": "functional"}, "[12]": {"system": "PC-3", "assay": "Cell cycle arrest in human PC3 cells assessed as accumulation at S phase at 70 uM after 72 hrs by RNase/propidium iodide staining-based flow cytometric analysis (reference value: 17 +/- 1%)", "type": "functional"}, "[13]": {"assay": "Antiproliferative activity against HSF cells after 72 hrs by MTT assay", "type": "cell-based", "details": "Homo sapiens"}, "[14]": {"system": "SNB-19", "assay": "Antiproliferative activity against human SNB19 cells after 72 hrs by MTT assay", "type": "functional, cell-based", "details": "SNB-19, 72 h"}, "[15]": {"system": "PC-3", "assay": "Induction of apoptosis in human PC3 cells assessed as intracellular ROS levels by measuring fluoresence intensity at 50 uM after 24 hrs by DCFH-DA staining-based flow cytometric analysis (reference value: 3176 +/- 398)", "type": "functional"}, "[16]": {"system": "HCT-15", "assay": "Antiproliferative activity against human HCT15 cells after 72 hrs by MTT assay", "type": "functional, cell-based", "details": "HCT-15, 72 h"}, "[17]": {"system": "PC-3", "assay": "Induction of apoptosis in human PC3 cells assessed as necrotic cells at 50 uM after 24 hrs by Annexin V-PE/7-AAD staining-based flow cytometric analysis (reference value: 14%)", "type": "functional"}, "[18]": {"system": "PC-3", "assay": "Cell cycle arrest in human PC3 cells assessed as accumulation at G0/G1 phase at 10 uM after 72 hrs by RNase/propidium iodide staining-based flow cytometric analysis (reference value: 61 +/- 3%)", "type": "functional"}, "[19]": {"system": "PC-3", "assay": "Induction of apoptosis in human PC3 cells assessed as late apoptotic cells at 50 uM after 24 hrs by Annexin V-PE/7-AAD staining-based flow cytometric analysis (reference value: 8%)", "type": "functional"}, "[20]": {"system": "PC-3", "assay": "Induction of apoptosis in human PC3 cells assessed as early apoptotic cells at 150 uM after 24 hrs by Annexin V-PE/7-AAD staining-based flow cytometric analysis (reference value: 2%)", "type": "functional"}, "[21]": {"system": "MDA-MB-231", "assay": "Antiproliferative activity against human MDA-MB-231 cells after 72 hrs by MTT assay", "type": "functional, cell-based", "details": "MDA-MB-231, 72 h"}, "[22]": {"system": "NCI-H322M", "assay": "Antiproliferative activity against human NCI-H322M cells after 72 hrs by MTT assay", "type": "functional, cell-based"}, "[23]": {"system": "HEK293", "assay": "Antiproliferative activity against human HEK293 cells after 72 hrs by MTT assay", "type": "cell-based", "details": "HEK293, 72 h"}, "[24]": {"system": "PC-3", "assay": "Cell cycle arrest in human PC3 cells assessed as accumulation at G0/G1 phase at 70 uM after 72 hrs by RNase/propidium iodide staining-based flow cytometric analysis (reference value: 61 +/- 3%)", "type": "functional"}, "[25]": {"system": "PC-3", "assay": "Cell cycle arrest in human PC3 cells assessed as accumulation at S phase at 10 uM after 72 hrs by RNase/propidium iodide staining-based flow cytometric analysis (reference value: 17 +/- 1%)", "type": "functional"}, "[26]": {"system": "PC-3", "assay": "Induction of apoptosis in human PC3 cells assessed as late apoptotic cells at 150 uM after 24 hrs by Annexin V-PE/7-AAD staining-based flow cytometric analysis (reference value: 8%)", "type": "functional"}, "[27]": {"system": "PC-3", "assay": "Antiproliferative activity against human PC3 cells after 72 hrs by MTT assay", "type": "functional, cell-based", "details": "PC-3, 72 h"}, "[28]": {"system": "PC-3", "assay": "Antiproliferative activity in human PC3 cells at 2 to 10 uM measured during 120 hrs each 15 mins by RTCA DP based cellular impedance analysis", "type": "functional, cell-based"}, "[29]": {"system": "OVCAR-4", "assay": "Antiproliferative activity against human OVCAR4 cells after 72 hrs by MTT assay", "type": "functional, cell-based", "details": "OVCAR-4, 72 h"}, "[30]": {"system": "PC-3", "assay": "Induction of apoptosis in human PC3 cells assessed as viable cells at 50 uM after 24 hrs by Annexin V-PE/7-AAD staining-based flow cytometric analysis (reference value: 70%)", "type": "functional", "details": "PC-3, 24 h, read-out: Activity"}, "[31]": {"system": "PC-3", "assay": "Induction of apoptosis in human PC3 cells assessed as necrotic cells at 150 uM after 24 hrs by Annexin V-PE/7-AAD staining-based flow cytometric analysis (reference value: 14%)", "type": "functional"}, "[32]": {"system": "PC-3", "assay": "Induction of apoptosis in human PC3 cells assessed as viable cells at 150 uM after 24 hrs by Annexin V-PE/7-AAD staining-based flow cytometric analysis (reference value: 70%)", "type": "functional", "details": "PC-3, 24 h, read-out: Activity"}, "[33]": {"system": "PC-3", "assay": "Induction of mitochondrial membrane potential loss in human PC3 cells assessed as fluorescence intensity at 150 uM after 24 hrs by TMRE dye-based flow cytometric analysis (reference value: 10101 +/- 853)", "type": "functional"}, "[34]": {"system": "PC-3", "assay": "Cell cycle arrest in human PC3 cells assessed as accumulation at G2/M phase at 10 uM after 72 hrs by RNase/propidium iodide staining-based flow cytometric analysis (reference value: 20 +/- 3%)", "type": "functional"}}, "note": "Calls of active or inactive are those of the source. The rule behind the calls is not given here."}
{"smiles": "COc1cc(/C=C/C(C)=O)ccc1O", "note": "[DEHYDROZINGERONE]", "values": [{"measurement": "Activity", "setting": "[1]", "result": 31, "unit": "%"}, {"measurement": "Flu intensity", "setting": "[2]", "result": 7701}, {"measurement": "Activity", "setting": "[3]", "result": 3, "unit": "%"}, {"measurement": "Flu intensity", "setting": "[4]", "result": 7502}, {"measurement": "IC50", "setting": "[5]", "result": 70, "unit": "µM"}, {"measurement": "IC50", "setting": "[6]", "result": 125, "unit": "µM"}, {"measurement": "IC50", "setting": "[7]", "result": 31, "unit": "µM"}, {"measurement": "IC50", "setting": "[8]", "result": 550, "unit": "µM"}, {"measurement": "inhibition (INH)", "setting": "[9]", "result": 47, "unit": "%"}, {"measurement": "Activity", "setting": "[10]", "result": "Active"}, {"measurement": "inhibition (INH)", "setting": "[11]", "result": 78, "unit": "%"}, {"measurement": "Activity", "setting": "[12]", "result": 17, "unit": "%"}, {"measurement": "IC50", "setting": "[13]", "result": 176, "unit": "µM"}, {"measurement": "IC50", "setting": "[14]", "result": 138, "unit": "µM"}, {"measurement": "Flu intensity", "setting": "[15]", "result": 2024}, {"measurement": "IC50", "setting": "[16]", "result": 65, "unit": "µM"}, {"measurement": "Activity", "setting": "[17]", "result": 13, "unit": "%"}, {"measurement": "Activity", "setting": "[18]", "result": 60, "unit": "%"}, {"measurement": "Activity", "setting": "[19]", "result": 13, "unit": "%"}, {"measurement": "Activity", "setting": "[20]", "result": 3, "unit": "%"}, {"measurement": "IC50", "setting": "[21]", "result": 86, "unit": "µM"}, {"measurement": "IC50", "setting": "[22]", "result": 96, "unit": "µM"}, {"measurement": "IC50", "setting": "[23]", "result": 64, "unit": "µM"}, {"measurement": "Activity", "setting": "[24]", "result": 49, "unit": "%"}, {"measurement": "Activity", "setting": "[25]", "result": 18, "unit": "%"}, {"measurement": "Activity", "setting": "[26]", "result": 16, "unit": "%"}, {"measurement": "IC50", "setting": "[27]", "result": 68, "unit": "µM"}, {"measurement": "Activity", "setting": "[28]", "result": "inactive"}, {"measurement": "IC50", "setting": "[29]", "result": 139, "unit": "µM"}, {"measurement": "viability at 50 µM", "setting": "[30]", "result": 70, "unit": "%"}, {"measurement": "Activity", "setting": "[31]", "result": 16, "unit": "%"}, {"measurement": "viability at 150 µM", "setting": "[32]", "result": 64, "unit": "%"}, {"measurement": "Flu intensity", "setting": "[33]", "result": 7859}, {"measurement": "Activity", "setting": "[34]", "result": 21, "unit": "%"}]}
